≈ marks a conversion by molar mass, not a printed value. Bridge positions count the residues as written; N and C are the ends. Square brackets hold non-standard residues; d marks the D form. Peptide text beside a SMILES is read from it. * marks the point of attachment. Bip = N[C@@H](Cc1ccc(-c2ccccc2)cc1)C(=O)O; dPhe(4-I) = N[C@H](Cc1ccc(I)cc1)C(=O)O; NMe2Val = CC(C)[C@@H](C(=O)*)N(C)C; NMeI = CC[C@H](C)[C@H](NC)C(=O)O; NMeT = CN[C@H](C(=O)O)[C@@H](C)O; 4Pal = N[C@@H](Cc1ccncc1)C(=O)O; Tic = O=C(O)[C@@H]1Cc2ccccc2CN1; NMeL = CN[C@@H](CC(C)C)C(=O)O; S5 = C=CCCC[C@](C)(N)C(=O)O; Hiv = CC(C)[C@H](O)C(=O)O; NMeS = CN[C@@H](CO)C(=O)O; Octanoyl = CCCCCCCC(=O)*; dNMeA = CN[C@H](C)C(=O)O; Sar = CNCC(=O)O
What was measured:
[1] = Inhibition of GABA-A receptor (unknown origin); parameters: species or system Homo sapiens
Melanocortin receptor 3 = Melanocortin receptor 3 (Homo sapiens, UniProt P41968); assay: Inhibition of MC3R (unknown origin)
[2] = target: G-protein coupled receptor 52 (Homo sapiens, UniProt Q9Y2T5); assay: Agonist activity at human GPR52 expressed in CHO cells assessed as increase in intracellular cAMP level incubated for 30 mins by Alphascreen assay; type: functional, cell-based
Replicase polyprotein 1a = Replicase polyprotein 1a (Severe acute respiratory syndrome-related coronavirus, UniProt P0C6U8); assay: Inhibition of SARS-CoV MPro using Dabcyl-KTSAVLQSGFRKM-E(Edans)-NH2 as substrate preincubated for 15 mins followed by substrate addition measured after 30 mins by FRET assay
Candida albicans = assay: Antifungal activity against Candida albicans ATCC 10231 assessed as fungal growth inhibition; type: functional, organism-based
Cryptococcus neoformans = assay: Antifungal activity against Cryptococcus neoformans ATCC 32045 assessed as inhibition of fungal growth incubated for 72 hrs by broth microdilution method; type: functional
Enterococcus faecalis = assay: Antibacterial activity against Enterococcus faecalis ATCC 29212 assessed as bacterial growth inhibition by agar diffusion assay; type: functional
Staphylococcus aureus [3] = assay: Antibacterial activity against Staphylococcus aureus assessed as reduction in microbial growth by CLSI based broth microdilution method; type: functional
Escherichia coli [4] = assay: Antimicrobial activity against Escherichia coli ATCC 25922 assessed as reduction in microbial growth after 24 hrs by CLSI based Mueller-Hinton broth assay; type: functional
Klebsiella pneumoniae = assay: Antimicrobial activity against Klebsiella pneumoniae ATCC 13882 assessed as reduction in microbial growth after 24 hrs by CLSI based Mueller-Hinton broth assay; type: functional
Pseudomonas aeruginosa [5] = assay: Antimicrobial activity against Pseudomonas aeruginosa ATCC 27853 assessed as reduction in microbial growth after 24 hrs by CLSI based Mueller-Hinton broth assay; type: functional
Acinetobacter baumannii [6] = assay: Antibacterial activity against Acinetobacter baumannii ATCC 17978 assessed as reduction in microbial growth after 24 hrs by CLSI based Mueller-Hinton broth assay; type: functional
Acinetobacter baumannii [7] = assay: Antibacterial activity against Acinetobacter baumannii ATCC 19606 assessed as reduction in microbial growth after 16 hrs by broth microdilution method; type: functional
Staphylococcus aureus [8] = assay: Antibacterial activity against Staphylococcus aureus ATCC 25923 assessed as reduction in bacterial growth incubated for 18 to 20 hrs by broth microdilution assay; type: functional; conditions: time 18-20 hrs
Escherichia coli [9] = assay: Antibacterial activity against Escherichia coli K12 assessed as reduction in bacterial growth incubated for 16 hrs by Broth micro-dilution assay; type: functional
Pseudomonas aeruginosa [10] = assay: Antibacterial activity against Pseudomonas aeruginosa PAO1 assessed as bacterial growth inhibition by CLSI protocol based microdilution method; type: functional
Mu-type opioid receptor = Mu-type opioid receptor (Homo sapiens, UniProt P35372); assay: Agonist activity at MOR (unknown origin); type: functional
[11] = target: Amyloid-beta precursor protein (Homo sapiens) (UniProt P05067); assay: Inhibition of amyloid beta42 (unknown origin) aggregation at 10 uM measured after 5 mins by ThT fluorescence based assay relative to control
HeLa = assay: Antiproliferative activity against human HeLa cells assessed as reduction in cell viability by MTT assay; type: functional, cell-based
[12] = Half life in human plasma; type: ADME, cell-free
[13] = target: Tyrosine-protein kinase FRK (Homo sapiens, UniProt P42685); assay: Inhibition of FRK (unknown origin)
Escherichia coli [14] = assay: Antibacterial activity against Escherichia coli ATCC 25922 assessed as bacterial growth inhibition; type: functional
[15] = Binding affinity to SETD8 (unknown origin) assessed as dissociation constant; parameters: species or system Homo sapiens

Chain of Melanocortin receptor 3 (P41968 whole entry): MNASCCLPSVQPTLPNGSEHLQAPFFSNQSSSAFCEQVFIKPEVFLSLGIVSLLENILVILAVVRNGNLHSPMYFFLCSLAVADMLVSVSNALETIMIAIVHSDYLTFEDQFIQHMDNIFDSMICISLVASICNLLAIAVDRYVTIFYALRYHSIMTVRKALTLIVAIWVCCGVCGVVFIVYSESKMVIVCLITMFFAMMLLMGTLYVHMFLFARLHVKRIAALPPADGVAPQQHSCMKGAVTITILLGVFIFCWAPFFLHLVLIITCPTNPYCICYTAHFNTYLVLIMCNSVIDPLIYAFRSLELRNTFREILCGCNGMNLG
Chain of Mu-type opioid receptor (P35372 whole entry): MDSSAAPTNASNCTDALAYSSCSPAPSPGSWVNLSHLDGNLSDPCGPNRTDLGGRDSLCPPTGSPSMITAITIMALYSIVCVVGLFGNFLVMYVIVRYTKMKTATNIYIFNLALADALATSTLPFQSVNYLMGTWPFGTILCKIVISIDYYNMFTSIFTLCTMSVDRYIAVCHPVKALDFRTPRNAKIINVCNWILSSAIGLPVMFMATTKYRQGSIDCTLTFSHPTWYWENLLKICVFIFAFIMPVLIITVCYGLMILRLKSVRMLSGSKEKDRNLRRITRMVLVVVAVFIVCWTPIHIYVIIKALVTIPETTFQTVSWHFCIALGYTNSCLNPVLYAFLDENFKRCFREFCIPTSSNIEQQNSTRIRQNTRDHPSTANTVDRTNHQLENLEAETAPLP
Chain of Tyrosine-protein kinase FRK (P42685 whole entry): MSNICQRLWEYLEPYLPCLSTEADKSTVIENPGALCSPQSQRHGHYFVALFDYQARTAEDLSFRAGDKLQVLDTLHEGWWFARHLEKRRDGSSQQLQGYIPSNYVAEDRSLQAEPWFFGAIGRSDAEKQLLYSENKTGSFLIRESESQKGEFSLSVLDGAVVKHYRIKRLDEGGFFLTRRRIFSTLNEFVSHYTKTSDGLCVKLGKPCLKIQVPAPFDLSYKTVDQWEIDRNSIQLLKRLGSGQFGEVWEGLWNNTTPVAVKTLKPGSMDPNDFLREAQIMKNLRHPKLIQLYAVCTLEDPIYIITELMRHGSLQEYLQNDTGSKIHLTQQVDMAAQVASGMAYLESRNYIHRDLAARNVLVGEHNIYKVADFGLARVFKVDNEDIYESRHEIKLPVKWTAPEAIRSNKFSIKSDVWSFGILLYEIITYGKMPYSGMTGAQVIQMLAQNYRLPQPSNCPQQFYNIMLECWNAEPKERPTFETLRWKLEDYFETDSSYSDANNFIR
Chain of G-protein coupled receptor 52 (Q9Y2T5 whole entry): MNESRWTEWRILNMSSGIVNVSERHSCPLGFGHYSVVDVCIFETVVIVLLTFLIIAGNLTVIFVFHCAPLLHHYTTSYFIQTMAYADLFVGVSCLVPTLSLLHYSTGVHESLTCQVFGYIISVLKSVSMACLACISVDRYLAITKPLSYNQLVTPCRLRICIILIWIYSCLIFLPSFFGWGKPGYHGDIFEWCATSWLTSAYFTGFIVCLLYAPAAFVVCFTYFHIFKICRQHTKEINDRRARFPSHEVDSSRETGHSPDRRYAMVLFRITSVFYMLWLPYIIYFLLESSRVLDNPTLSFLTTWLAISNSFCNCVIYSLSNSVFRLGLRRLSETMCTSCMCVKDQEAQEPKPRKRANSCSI
Chain of Amyloid-beta precursor protein (Homo sapiens) (P05067 whole entry): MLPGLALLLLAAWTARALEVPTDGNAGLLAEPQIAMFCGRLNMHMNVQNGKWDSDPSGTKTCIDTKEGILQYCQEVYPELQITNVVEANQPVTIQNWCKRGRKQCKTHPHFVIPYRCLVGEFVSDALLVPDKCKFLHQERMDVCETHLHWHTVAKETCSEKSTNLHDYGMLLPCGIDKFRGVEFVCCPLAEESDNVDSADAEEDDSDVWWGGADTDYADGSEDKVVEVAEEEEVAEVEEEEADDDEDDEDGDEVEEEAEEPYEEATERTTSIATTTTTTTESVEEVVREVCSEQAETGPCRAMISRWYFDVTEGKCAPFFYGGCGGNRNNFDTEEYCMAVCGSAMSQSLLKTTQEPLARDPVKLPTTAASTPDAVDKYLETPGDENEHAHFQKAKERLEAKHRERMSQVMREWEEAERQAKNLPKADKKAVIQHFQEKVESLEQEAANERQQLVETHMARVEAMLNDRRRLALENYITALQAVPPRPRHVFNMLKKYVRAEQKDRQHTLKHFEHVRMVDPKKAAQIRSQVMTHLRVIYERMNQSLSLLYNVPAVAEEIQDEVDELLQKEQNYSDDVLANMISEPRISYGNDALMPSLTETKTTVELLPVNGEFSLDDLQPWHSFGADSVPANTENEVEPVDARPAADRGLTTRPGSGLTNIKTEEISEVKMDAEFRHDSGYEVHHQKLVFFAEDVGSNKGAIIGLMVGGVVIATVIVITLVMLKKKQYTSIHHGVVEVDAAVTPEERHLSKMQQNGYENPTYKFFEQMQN

With `N[C@H]1C[C@@H](C(=O)O)C[C@@H]1F` the IC50 [1] was 50 nM.
`CC(=O)N[C@@H](Cc1cnc[nH]1)C(=O)N[C@H](Cc1ccccc1)C(=O)N[C@@H](CCCN=C(N)N)C(=O)N[C@@H](Cc1c[nH]c2ccccc12)C(N)=O` showed an IC50 (Melanocortin receptor 3) of 560 nM.
For `CSCC[C@H](NC(=O)[C@@H]1CCCN1C(=O)CNC(=O)[C@H](CCCCN)NC(=O)[C@H](Cc1cnc[nH]1)NC(=O)[C@H](CO)NC(=O)[C@H](CC(C)C)NC(=O)[C@H](CCCNC(=N)N)NC(=O)[C@@H]1CCCN1C(=O)[C@H](CCCNC(=N)N)NC(=O)[C@@H](N)CCC(N)=O)C(=O)N1CCC[C@H]1C(=O)N[C@@H](Cc1ccccc1)C(=O)O`, the EC50 [2] was 1.4 nM.
Compound `N[C@H]1C=C(C(=O)O)C[C@@H]1F` has an IC50 [1] of 20 nM.
In the case of `O=C[C@H](C[C@@H]1CCNC1=O)NC(=O)[C@H](Cc1cccc(F)c1)NC(=O)c1cc2ccccc2[nH]1`, the IC50 (Replicase polyprotein 1a) is reported as 40 nM.
With `O=C[C@H](C[C@@H]1CCNC1=O)NC(=O)[C@H](CC1CCCCC1)NC(=O)c1cc2ccccc2[nH]1` the IC50 (Replicase polyprotein 1a) was 53 nM.
Work on `Cc1ccc(C[C@H](NC(=O)[C@@H](Cc2ccccc2)NC(=O)[C@@H](Cc2c[nH]c3ccccc23)NC(=O)[C@@H](N)CCCN)C(=O)N[C@H](Cc2ccccc2)C(=O)N[C@@H](Cc2cn(Cc3ccccc3)cn2)C(N)=O)cc1` yielded an IC50 (Candida albicans) of 15.3 µg/mL (≈ 15.3 µM).
With `CCCCc1ccc(-n2cnc(C[C@H](NC(=O)[C@H](Cc3c[nH]c4ccccc34)NC(=O)[C@@H](N)Cc3cn(-c4ccc(CCCC)cc4)cn3)C(=O)NCc3ccccc3)c2)cc1` the MIC (Cryptococcus neoformans) was 2.46 µg/mL (≈ 2.96 µM).
In the case of `CC(C)(C)c1cc(Cn2cnc(C[C@H](NC(=O)[C@@H](N)Cc3c[nH]c4ccccc34)C(=O)NCc3ccccc3)c2)cc(C(C)(C)C)c1`, the MIC (Enterococcus faecalis) is reported as 8 µg/mL (≈ 12.6 µM) and the MIC (Staphylococcus aureus [3]) is reported as 4.4 µg/mL.
With `CC(C)C[C@@H]1NC(=O)[C@@H](Cc2ccccc2)NC(=O)[C@@H](CCN)NC(=O)[C@@H](NC(=O)[C@H](CCN)NC(=O)[C@@H](NC(=O)[C@H](CCN)NC(=O)C[C@H](CN)C2CCCCC2)[C@@H](C)O)CCNC(=O)[C@H]([C@@H](C)O)NC(=O)[C@H](CCN)NC(=O)[C@H](CCN)NC1=O` the MIC (Escherichia coli [4]) was 0.06 µg/mL, the MIC (Klebsiella pneumoniae) was 0.125 µg/mL and the MIC (Pseudomonas aeruginosa [5]) was 0.06 µg/mL. The MIC (Acinetobacter baumannii [6]) was 0.25 µg/mL.
Work on `CC[C@H](C)[C@H](NC(=O)[C@H](CC1CCCCC1)NC(=O)[C@@H](Cc1c[nH]c2ccccc12)NC(=O)[C@@H](N)CCCN)C(=O)N[C@H](Cc1ccccc1)C(=O)N[C@@H](Cc1cn(Cc2ccccc2)cn1)C(N)=O` yielded an IC50 (Candida albicans) of 1 µg/mL (≈ 1.04 µM).
Work on `CC(=O)N[C@@H](Cc1c[nH]cn1)C(=O)N[C@H](Cc1ccc(I)cc1)C(=O)N[C@@H](CCCNC(=N)N)C(=O)N1Cc2ccccc2C[C@H]1C(N)=O` (Ac-H[dPhe(4-I)]R[Tic]-NH2) yielded an IC50 (Melanocortin receptor 3) of 290 nM.
Work on `CC(=O)N[C@@H](Cc1ccncc1)C(=O)N[C@H](Cc1ccc(I)cc1)C(=O)N[C@@H](CCCNC(=N)N)C(=O)N[C@@H](Cc1c[nH]c2ccccc12)C(N)=O` (Ac-[4Pal][dPhe(4-I)]RW-NH2) yielded an IC50 (Melanocortin receptor 3) of 7 nM.
Work on `C=CCCC[C@](C)(NC(=O)[C@H](CCCCN)NC(=O)[C@H](CC(C)C)NC(=O)[C@@H](N)Cc1ccccc1)C(=O)N[C@@H](CC(C)C)C(=O)N[C@@H](CCCCN)C(=O)N[C@@H](CCCCN)C(=O)N[C@@H](CC(C)C)C(=O)N[C@@H](CC(C)C)C(N)=O` (H-FLK[S5]LKKLL-NH2) yielded an MIC (Acinetobacter baumannii [7]) of 4 µg/mL, an MIC (Staphylococcus aureus [8]) of 4 µg/mL (≈ 3.51 µM) and an MIC (Escherichia coli [9]) of 8 µg/mL (≈ 7.01 µM). The MIC (Pseudomonas aeruginosa [10]) was 8 µg/mL (≈ 7.01 µM).
In the case of `CN(CC(=O)O)C(=O)[C@H](Cc1ccccc1)NC(=O)[C@@H](CCCN=C(N)N)NC(=O)[C@@H](N)Cc1ccc(O)cc1` (H-Y[dR]F[Sar]-OH), the EC50 (Mu-type opioid receptor) is reported as 90 nM.
For `CC[C@H](C)[C@H](NC(=O)[C@@H](NC(=O)[C@H](N)Cc1ccccc1)C(C)C)C(=O)N[C@@H](C)C(N)=O` (H-[dF]VIA-NH2), the inhibition [11] was 100%.
Compound `CC[C@H](C)[C@H]1C(=O)N[C@@H](C)C(=O)N(C)[C@@H](CC(C)C)C(=O)N[C@@H](Cc2ccc(OC)cc2)C(=O)N(C)[C@H](C)C(=O)O[C@H](C)[C@H](N(C)C(=O)[C@H](CC(C)C)N(C)C(=O)[C@H](COC)N(C)C(=O)[C@@H](OC(=O)[C@H](C(C)C)N(C)C)C(C)C)C(=O)N(C)[C@@H](COC)C(=O)N1C` (NMe2Val-[Hiv][NMeS](Me)[NMeL][NMeT][NMeS](Me)[NMeI]A[NMeL]Y(Me)[dNMeA]; ester 4-C) has an IC50 (HeLa) of 1.4 nM.
Compound `CCCCCCCC(=O)N[C@@H](Cc1cnc[nH]1)C(=O)N[C@H](Cc1ccccc1)C(=O)N[C@@H](CCCNC(=N)N)C(=O)N[C@@H](Cc1ccc(-c2ccccc2)cc1)C(N)=O` (Octanoyl-H[dF]R[Bip]-NH2) has an IC50 (Melanocortin receptor 3) of 50 nM.
For `N=C(N)NCCC[C@@H]1C(=O)N[C@@H](Cc2ccccc2)C(=O)N(CC(N)=O)CCNC(=O)NCCCCCCN1C(=O)[C@@H](N)Cc1ccc(O)cc1` (mixture of isomers), the EC50 (Mu-type opioid receptor) was 46 nM.
For `CC[C@H](C)[C@H]1C(=O)N2CCC[C@H]2C(=O)O[C@H](C(C)(C)C)C[C@@H](C)C[C@H](O)[C@H](C)C2=N[C@@H](CCC(=O)N[C@@H](Cc3ccc(OC)cc3)C(=O)N(C)[C@@H](C)C(=O)N1C)CS2` [APRATOXIN S4], the IC50 (Replicase polyprotein 1a) was 170 nM.
Work on `C[C@@H](O)[C@@H]1NC(=O)[C@H](CCCCN)NC(=O)[C@@H](Cc2c[nH]c3ccccc23)NC(=O)[C@H](Cc2ccccc2)NC(=O)[C@@H](NC(=O)[C@H](N)Cc2ccccc2)CSSC[C@@H](C(=O)N[C@H](CO)[C@@H](C)O)NC1=O` [OCTREOTIDE] yielded a half-life [12] of 1.5 h.
Work on `Nc1nc2[nH]cc(CCc3ccc(C(=O)N[C@@H](CCC(=O)O)C(=O)O)cc3)c2c(=O)[nH]1` [PEMETREXED] yielded an IC50 [13] of 42 nM.
Work on H-FLKLLKKLL-NH2 yielded an MIC (Acinetobacter baumannii [7]) of 16 µg/mL, an MIC (Staphylococcus aureus [8]) of 16 µg/mL and an MIC (Escherichia coli [9]) of 32 µg/mL. The MIC (Pseudomonas aeruginosa [10]) was 8 µg/mL.
H-KKKKKKAAFAAWAAFAA-NH2 showed an MIC (Escherichia coli [14]) of 1.6 µM.
Work on H-KRHRKVLR-OH yielded a Kd [15] of 46000 nM.
